Experimental data published in patent US11931368B2, “Glucocorticoid “nintedanib” particles and their use” (CRITITECH, INC., priority 2017, dated 2024).

Experiments:
[1] = Particle size distribution (volume, laser-light diffraction); assay type: physicochemical
Description: The particle size of the particles of all aspects disclosed herein can be determined by a particle size analyzer instrument and the measurement is expressed as the mean diameter based on a volume distribution (volume). A suitable particle size analyzer instrument is one which employs the analytical technique of […]. A suitable laser-light diffraction particle size analyzer instrument is the Mastersizer, such as the Mastersizer 3000, available from Malvern Instruments, United Kingdom.

[2] = Specific surface area by BET isotherm; assay type: physicochemical
Procedure: As used herein, the “specific surface area” (SSA) is the total surface area of the particle per unit of compound mass as measured by the Brunauer-Emmett-Teller (“BET”) isotherm by the following method: a known mass between 200 and 300 mg of the analyte is added to a 30 mL sample tube. The loaded tube is then mounted to a Porous Materials Inc. SORPTOMETER®, model BET-202A. The automated test is then carried out using the BETWIN® software package and the surface area of each sample is subsequently calculated. Such an increase in SSA results in significant increases in dissolution rates in relevant media as compared to therapeutic particles produced by conventional means. The “therapeutic particles” can include both agglomerated therapeutic particles and non-agglomerated therapeutic particles; since the SSA is determined on a per gram basis it takes into account both agglomerated and non-agglomerated therapeutic particles in the composition. The BET specific surface area test procedure is a compendial method included in both the United States Pharmaceopeia and the European Pharmaceopeia.

Row | Compound | Dv10 [1] | Dv50 [1] | Dv90 [1] | SSA (specific surface area) [2]
1 | CCC(=O)O[C@]1(C(=O)SCF)[C@H](C)C[C@H]2[C@@H]3C[C@H](F)C4=CC(=O)C=C[C@]4(C)[C@@]3(F)[C@@H](O)C[C@@]21C [Raw fluticasone, fluticasone propionate] | 10.9 μm | 39.0 μm | 74.4 μm | 4.11 m^2/g
2 | COC(=O)c1ccc2c(c1)NC(=O)/C2=C(\Nc1ccc(N(C)C(=O)CN2CCN(C)CC2)cc1)c1ccccc1 [Raw nintedanib, nintedanib] | 10.5 μm | 36.8 μm | 70.2 μm | 4.11 m^2/g
